Six compounds from US12448389B2, “BRM targeting compounds and associated methods of use” (Prelude Therapeutics Incorporated, priority 2020, dated 2025) can be followed below.

The target of assay [1] is T1, SMARCA2-HiBiT (Homo sapiens, UniProt P51531).
T1 construct: SMARCA2-HiBiT knock-in Hela monoclonal cell (CS302366); host or cells: HeLa monoclonal knock-in line (CRISPR HiBiT knock-in at the endogenous locus, heterozygous)
In words: SMARCA2 HiBiT degradation assay in HeLa cells. The format is cell-based. The conditions noted are these: 18 hours incubation; for DC50: read-out: HeLa_HiBit-SM2 DC50; for Dmax: HeLa, read-out: HeLa-HiBit-SM2 Dmax (%). The method in brief: (§1)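 HeLa monoclonal lines with heterozygous HiBiT knock-in were seeded at 2500 cells/well in EMEM with 10% FBS and treated with compound for 18 h at 37 °C. Remaining tagged protein was measured by Nano-Glo HiBiT lytic luminescence after 30–60 min at RT, and values came from curve fitting.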

In assay [2] the target is T2, SMARCA4-HiBiT (Homo sapiens, UniProt P51532).
T2 construct: SMARCA4-HiBiT knock-in Hela monoclonal cell (CS3023226); host or cells: HeLa monoclonal knock-in line (CRISPR HiBiT knock-in at the endogenous locus, heterozygous)
T2 sequence (P51532 whole entry): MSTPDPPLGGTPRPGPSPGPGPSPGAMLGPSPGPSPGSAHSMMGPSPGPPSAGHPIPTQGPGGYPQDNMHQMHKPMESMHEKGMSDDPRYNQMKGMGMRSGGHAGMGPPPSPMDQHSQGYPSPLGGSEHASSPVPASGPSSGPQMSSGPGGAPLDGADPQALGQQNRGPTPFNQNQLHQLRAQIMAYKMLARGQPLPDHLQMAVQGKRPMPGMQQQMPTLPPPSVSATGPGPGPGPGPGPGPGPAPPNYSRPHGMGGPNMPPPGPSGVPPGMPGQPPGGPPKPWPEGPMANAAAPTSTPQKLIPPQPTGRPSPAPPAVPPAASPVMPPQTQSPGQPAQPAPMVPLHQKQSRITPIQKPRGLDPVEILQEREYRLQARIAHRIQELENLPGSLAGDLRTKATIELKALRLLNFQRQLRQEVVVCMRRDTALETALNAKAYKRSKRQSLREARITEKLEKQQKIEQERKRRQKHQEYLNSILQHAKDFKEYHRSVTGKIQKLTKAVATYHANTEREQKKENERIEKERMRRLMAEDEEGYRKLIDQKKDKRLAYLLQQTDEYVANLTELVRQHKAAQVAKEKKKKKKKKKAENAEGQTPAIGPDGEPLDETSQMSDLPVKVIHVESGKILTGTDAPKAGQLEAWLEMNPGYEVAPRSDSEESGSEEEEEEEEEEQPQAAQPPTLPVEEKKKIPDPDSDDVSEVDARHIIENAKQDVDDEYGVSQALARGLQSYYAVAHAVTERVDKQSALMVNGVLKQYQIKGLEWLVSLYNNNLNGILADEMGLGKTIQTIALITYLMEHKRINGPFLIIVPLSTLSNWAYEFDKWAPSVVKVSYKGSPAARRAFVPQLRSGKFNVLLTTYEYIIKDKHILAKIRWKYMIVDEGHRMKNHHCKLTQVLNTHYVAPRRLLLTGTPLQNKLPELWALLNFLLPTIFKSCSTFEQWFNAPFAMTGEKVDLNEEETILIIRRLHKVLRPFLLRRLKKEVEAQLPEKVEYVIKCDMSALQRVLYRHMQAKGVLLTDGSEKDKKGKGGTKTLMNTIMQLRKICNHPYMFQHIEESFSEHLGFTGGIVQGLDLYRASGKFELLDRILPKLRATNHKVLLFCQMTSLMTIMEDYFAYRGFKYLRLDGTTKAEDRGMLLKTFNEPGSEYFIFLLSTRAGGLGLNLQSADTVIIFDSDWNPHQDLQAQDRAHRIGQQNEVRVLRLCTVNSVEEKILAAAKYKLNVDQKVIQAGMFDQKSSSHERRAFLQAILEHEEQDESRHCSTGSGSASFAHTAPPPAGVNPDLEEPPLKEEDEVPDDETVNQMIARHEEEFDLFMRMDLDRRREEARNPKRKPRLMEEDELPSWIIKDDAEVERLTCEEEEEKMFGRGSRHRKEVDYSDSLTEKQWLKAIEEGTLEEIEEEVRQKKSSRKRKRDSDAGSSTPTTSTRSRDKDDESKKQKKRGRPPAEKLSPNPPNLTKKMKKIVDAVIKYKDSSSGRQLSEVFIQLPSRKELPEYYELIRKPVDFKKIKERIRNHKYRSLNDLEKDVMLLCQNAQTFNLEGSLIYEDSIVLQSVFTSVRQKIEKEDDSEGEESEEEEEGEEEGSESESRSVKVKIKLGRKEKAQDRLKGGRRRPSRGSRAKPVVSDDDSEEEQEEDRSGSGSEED
Kind of assay: SMARCA4 HiBiT degradation assay in HeLa cells. The format is cell-based. The conditions noted are these: 18 hours incubation; for DC50: read-out: HeLa-HiBit-SM4 DC50; for Dmax: HeLa, read-out: HeLa-HiBit-SM4 Dmax (%). The method in brief:
as §1

T1 sequence (P51531 whole entry): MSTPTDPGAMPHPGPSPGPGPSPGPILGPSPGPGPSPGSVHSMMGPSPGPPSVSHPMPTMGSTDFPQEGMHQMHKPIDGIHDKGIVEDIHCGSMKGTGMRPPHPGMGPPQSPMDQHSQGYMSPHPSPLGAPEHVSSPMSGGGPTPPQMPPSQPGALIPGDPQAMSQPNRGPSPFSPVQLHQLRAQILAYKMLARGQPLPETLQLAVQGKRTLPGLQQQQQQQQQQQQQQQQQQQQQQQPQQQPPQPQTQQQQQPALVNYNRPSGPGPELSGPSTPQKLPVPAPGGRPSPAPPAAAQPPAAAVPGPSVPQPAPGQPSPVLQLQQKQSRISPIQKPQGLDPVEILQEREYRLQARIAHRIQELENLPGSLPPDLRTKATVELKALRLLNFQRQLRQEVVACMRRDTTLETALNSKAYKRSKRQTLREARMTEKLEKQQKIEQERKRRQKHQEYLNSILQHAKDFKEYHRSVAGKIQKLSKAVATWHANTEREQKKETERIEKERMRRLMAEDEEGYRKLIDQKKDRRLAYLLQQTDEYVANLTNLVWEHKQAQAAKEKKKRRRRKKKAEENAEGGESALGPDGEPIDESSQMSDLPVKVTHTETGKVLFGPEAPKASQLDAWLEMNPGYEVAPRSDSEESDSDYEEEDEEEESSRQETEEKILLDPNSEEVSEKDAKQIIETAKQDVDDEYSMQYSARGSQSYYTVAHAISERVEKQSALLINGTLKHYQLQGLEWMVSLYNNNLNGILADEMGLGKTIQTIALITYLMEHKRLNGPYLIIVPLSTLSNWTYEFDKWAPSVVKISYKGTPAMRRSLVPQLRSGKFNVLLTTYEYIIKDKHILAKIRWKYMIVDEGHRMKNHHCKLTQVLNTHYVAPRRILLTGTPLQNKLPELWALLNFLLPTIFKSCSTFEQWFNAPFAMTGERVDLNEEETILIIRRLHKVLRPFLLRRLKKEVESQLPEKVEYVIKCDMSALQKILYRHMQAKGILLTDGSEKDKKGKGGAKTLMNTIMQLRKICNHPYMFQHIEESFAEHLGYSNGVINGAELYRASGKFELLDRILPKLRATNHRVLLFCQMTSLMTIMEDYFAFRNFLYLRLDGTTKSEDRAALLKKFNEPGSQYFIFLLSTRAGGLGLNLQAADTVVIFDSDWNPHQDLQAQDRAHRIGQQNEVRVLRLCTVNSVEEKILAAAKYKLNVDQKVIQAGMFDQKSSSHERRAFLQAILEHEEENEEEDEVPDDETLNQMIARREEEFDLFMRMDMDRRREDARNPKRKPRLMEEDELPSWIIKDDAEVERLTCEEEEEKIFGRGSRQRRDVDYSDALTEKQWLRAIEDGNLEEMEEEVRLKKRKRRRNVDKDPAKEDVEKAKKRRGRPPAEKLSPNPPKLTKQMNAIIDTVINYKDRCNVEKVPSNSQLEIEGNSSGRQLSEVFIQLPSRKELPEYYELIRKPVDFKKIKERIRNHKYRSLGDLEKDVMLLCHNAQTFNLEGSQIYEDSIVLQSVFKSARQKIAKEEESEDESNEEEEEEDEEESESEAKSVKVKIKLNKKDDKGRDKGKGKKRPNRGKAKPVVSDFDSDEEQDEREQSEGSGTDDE

As to `CC1(CN2C[C@@H]3[C@@H](CN4CCN5c6cc(-c7ccccc7O)nnc6NC[C@H]5C4)[C@@H]3C2)CCN(c2ccc3c(c2)C(=O)N(C2CCC(=O)NC2=O)C3=O)C1` (stereo partly drawn) [Example 151, 2-(2,6-dioxopiperidin-3-yl)-5-(3-(((1R,5S,6r)-6-(((S)-2-(2-hydroxyphenyl)-5,6,6a,7,9,10-hexahydro-8H-pyrazino[1′,2′:4,5]pyrazino[2,3-c]pyridazin-8-yl)methyl)-3-azabicyclo[3.1.0]hexan-3-yl)methyl)-3-methylpyrrolidin-1-yl)isoindoline-1,3-dione], in assay [1], the DC50 was less than 10 nM and the maximal degradation (Dmax) was in the range of 75 to 85%. Besides, in assay [2], the DC50 lay in the range of 10 to 100 nM and the Dmax is 50 to 75%.

In the case of `O=C1CCC(N2C(=O)c3ccc(N4CCC(CN5CCC6C(C5)C6CN5CCN6c7cc(-c8ccccc8O)nnc7NC[C@H]6C5)CC4)cc3C2=O)C(=O)N1` (stereo partly drawn) [Example 46, 2-(2,6-dioxopiperidin-3-yl)-5-(4-((7-(((S)-2-(2-hydroxyphenyl)-5,6,6a,7,9,10-hexahydro-8H-pyrazino[1′,2′:4,5]pyrazino[2,3-c]pyridazin-8-yl)methyl)-3-azabicyclo[4.1,0]heptan-3-yl)methyl)piperidin-1-yl)isoindoline-1,3-dione], in assay [1], the 50% degradation concentration (DC50) was less than 10 nM and the Dmax was more than 85%. Also, in assay [2], the DC50 is less than 10 nM and the Dmax is more than 85%.

Regarding `O=C1CCC(N2Cc3cc(OCCN4CCC(N5CCN6c7cc(-c8ccccc8O)nnc7NC[C@H]6C5)CC4)ccc3C2=O)C(=O)N1` (stereo partly drawn) [Example 238], the half-maximal degradation concentration (DC50) in assay [1] and in assay [2] was less than 10 nM in each case. The Dmax was more than 85% in assay [1] and 75 to 85% in assay [2].

Turning to `O=C1CCC(N2Cc3ccc(N4CCC(CN5CCC(CN6CCN7c8cc(-c9ccccc9O)nnc8NC[C@H]7C6)CC5CO)CC4)cc3C2=O)C(=O)N1` (stereo partly drawn) [Example 235, 3-(6-(4-((2-(hydroxymethyl)-4-(((S)-2-(2-hydroxyphenyl)-5,6,6a,7,9,10-hexahydro-8H-pyrazino[1′,2′:4,5]pyrazino[2,3-c]pyridazin-8-yl)methyl)piperidin-1-yl)methyl)piperidin-1-yl)-1-oxoisoindolin-2-yl)piperidine-2,6-dione], the DC50 in assay [1] and in assay [2] was less than 10 nM each time. The greatest degradation seen (Dmax) in assay [1] and in assay [2] was more than 85% throughout.

Turning to `CC1CN(CC2CCN(c3ccc4c(c3)C(=O)N(C3CCC(=O)NC3=O)C4)CC2)CCN1C(=O)N1CCN2c3cc(-c4ccccc4O)nnc3NC[C@H]2C1` (stereo partly drawn) [Example 104, 3-(6-(4-((4-((S)-2-(2-hydroxyphenyl)-6,6a,7,8,9,10-hexahydro-5H-pyrazino[1′,2′:4,5]pyrazino[2,3-c]pyridazine-8-carbonyl)-3-methylpiperazin-1-yl)methyl)piperidin-1-yl)-1-oxoisoindolin-2-yl)piperidine-2,6-dione], in assay [1], the 50% degradation concentration (DC50) was less than 10 nM and the maximal degradation (Dmax) is more than 85%. Besides, in assay [2], the DC50 was less than 10 nM and the Dmax was 75 to 85%.

For the compound `C[C@H]1CN2c3cc(-c4ccccc4O)nnc3NC[C@H]2CN1C[C@H]1[C@@H]2CN(CC3CCN(c4ccc5c(c4)C(=O)N(C4CCC(=O)NC4=O)C5=O)CC3)C[C@@H]21` (stereo partly drawn) [Example 44, 2-(2,6-dioxopiperidin-3-yl)-5-(4-(((1R,5S,6r)-6-(((6aS,9S)-2-(2-hydroxyphenyl)-9-methyl-5,6,6a,7,9,10-hexahydro-8H-pyrazino[1′,2′:4,5]pyrazino[2,3-c]pyridazin-8-yl)methyl)-3-azabicyclo[3.1.0]hexan-3-yl)methyl)piperidin-1-yl)isoindoline-1,3-dione], the DC50 in assay [1] and in assay [2] was less than 10 nM in each case. Besides, the greatest degradation seen (Dmax) lay within 75 to 85% in assay [1] and 50 to 75% in assay [2].
